Assay results as given in PMC4832229 (Scientific Reports, 2016).
Where two headings read alike, the source gives them in different places.

Key:
S1P2 [1] = target: T1, S1P2 (Homo sapiens, UniProt O95136); settings: cited from earlier work
T1 construct: expressed in transfected cells; host or cells: HEK293

C6 cells = assay: Cell death assay (propidium iodide exclusion) in C6 cells; type: cell-based, rat
Description: Cell death was evaluated by propidium iodide exclusion assay. Cells were plated in 96-well plates at ~50% confluence, incubated overnight, then treated with cisplatin (67 μM) for 24 hours in the presence of vehicle or 10 μM CYM-5478. Cell were treated with Hoechst 33342 (1 mg/ml) and propidium iodide (0.3 mg/ml) for 20 minutes, washed with phosphate-buffered saline, then rapidly photographed with a Cytation 3 automated imager (Biotek Instruments, Inc.). % cell death reflects a ratio of propidium iodide-positive and Hoechst 33342-positive cells.

ROS in C6 cells = assay: ROS assay (CellROX) in C6 cells; type: cell-based, rat; settings: for effect on cisplatin-induced ROS: co-administered with cisplatin, CYM-5478 10 μM; for effect on CYM-5478-mediated attenuation of cisplatin-induced ROS: cisplatin + CYM-5478
Description: Cells were plated in clear-bottom, black-walled 96-well plates at ~50% confluence, incubated overnight, then treated overnight with cisplatin in the presence of the indicated compounds. All conditions were vehicle-controlled (0.1% DMSO). […] Cells were photographed with a 20X objective lens, 3 fields per well, 3 wells per condition. Quantification was performed using ImageJ software, but dividing the total integrated density of CellROX® labelling by the number of cells per Hoechst staining.

C6 rat glioma cells = assay: Viability assay (MTT) in C6 cells; type: cell-based; settings: for EC50: vehicle
Description: Cell viability was determined by 3-(4,5-dimethylthiazol-2-yl)-2,5-diphenyltetrazolium bromide (MTT) assay as described. Briefly, C6 cells were seeded into 96-well plates at 20,000 cells/well, incubated overnight, serum-starved for 4 h, and treated for 72 hours with cisplatin in the presence of CYM-5478 or vehicle.

[2] = system: other S1P receptor subtypes; assay: TGFα-shedding assay, other S1P receptor subtypes (summary statement); type: cell-based; settings: subtypes other than S1P2
Description: (§1) The TGFα-shedding assay was performed essentially as described. Briefly, HEK293 cells were co-transfected with the indicated receptor expression construct and TGFα-alkaline phosphatase using Lipofectamine 2000 reagent (cat #11668019, Thermo Fisher), collected by trypsinization, washed with phosphate-buffered saline, and seeded into 96-well plates in Hank’s Balanced Saline Solution (HBSS). To improve assay sensitivity, S1P1 and S1P2 cells were co-transfected with Gαq/i1 chimeric protein, and S1P4 and S1P5 were co-transfected with Gαq/16, as previously described. Cells were stimulated with ligand for 1 hour, then alkaline phosphatase activity was detected in cells and in the supernatant. Receptor activity (% shedding) was defined as alkaline phosphatase activity of the supernatant/total alkaline phosphatase activity (cells + supernatant). Data processing and statistical analyses were performed with GraphPad Prism 6.

S1P4 = target: T2, S1P4 (Homo sapiens, UniProt O95977); assay: TGFα-shedding assay, S1P4; type: cell-based; settings: for EC50: HEK293 cells, ligand 1 hour
T2 construct: expressed in transfected cells; host or cells: HEK293
T2 sequence (O95977 1-384): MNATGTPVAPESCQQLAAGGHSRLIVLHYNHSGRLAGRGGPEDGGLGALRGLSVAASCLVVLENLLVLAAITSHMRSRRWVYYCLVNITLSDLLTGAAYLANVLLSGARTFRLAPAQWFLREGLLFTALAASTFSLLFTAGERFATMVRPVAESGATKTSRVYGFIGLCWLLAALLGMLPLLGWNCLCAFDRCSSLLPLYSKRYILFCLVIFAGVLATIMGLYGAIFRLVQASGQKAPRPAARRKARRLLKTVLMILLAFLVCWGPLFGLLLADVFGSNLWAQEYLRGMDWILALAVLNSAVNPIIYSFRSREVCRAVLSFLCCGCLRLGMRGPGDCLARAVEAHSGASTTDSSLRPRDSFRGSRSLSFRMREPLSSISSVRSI
Description: as §1

[3] = system: caspase 3/7 activity in C6 cells; assay: Caspase-Glo 3/7 assay in C6 cells; type: cell-based, rat
Description: Cells were plated in clear-bottom, black-walled 96-well plates at ~50% confluence, incubated overnight, then treated overnight with cisplatin in the presence of vehicle or 10 μM CYM-5478. Caspase activation was evaluated by Caspase-Glo 3/7 Assay System (Promega Corporation) per manufacturer’s instructions.

S1P2-EGFP = target: T3, S1P2-EGFP (Homo sapiens, UniProt O95136); assay: Receptor internalization assay, S1P2-EGFP; type: cell-based; settings: 1 μM ligand
T3 construct: expressed in transfected cells
T3 sequence (O95136 whole entry): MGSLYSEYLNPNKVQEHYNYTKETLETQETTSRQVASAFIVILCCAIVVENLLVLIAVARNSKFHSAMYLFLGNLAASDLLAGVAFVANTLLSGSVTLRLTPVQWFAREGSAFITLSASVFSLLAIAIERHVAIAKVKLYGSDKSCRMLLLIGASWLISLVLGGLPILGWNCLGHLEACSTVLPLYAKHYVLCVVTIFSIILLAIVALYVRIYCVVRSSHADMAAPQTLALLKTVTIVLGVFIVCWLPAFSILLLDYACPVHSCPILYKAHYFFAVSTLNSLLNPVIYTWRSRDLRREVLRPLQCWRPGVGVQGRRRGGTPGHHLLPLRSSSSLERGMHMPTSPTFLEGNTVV

S1P5 = target: T4, S1P5 (Homo sapiens, UniProt Q9H228); assay: TGFα-shedding assay, S1P5; type: cell-based
T4 construct: expressed in transfected cells; host or cells: HEK293
T4 sequence (Q9H228 whole entry, species assumed): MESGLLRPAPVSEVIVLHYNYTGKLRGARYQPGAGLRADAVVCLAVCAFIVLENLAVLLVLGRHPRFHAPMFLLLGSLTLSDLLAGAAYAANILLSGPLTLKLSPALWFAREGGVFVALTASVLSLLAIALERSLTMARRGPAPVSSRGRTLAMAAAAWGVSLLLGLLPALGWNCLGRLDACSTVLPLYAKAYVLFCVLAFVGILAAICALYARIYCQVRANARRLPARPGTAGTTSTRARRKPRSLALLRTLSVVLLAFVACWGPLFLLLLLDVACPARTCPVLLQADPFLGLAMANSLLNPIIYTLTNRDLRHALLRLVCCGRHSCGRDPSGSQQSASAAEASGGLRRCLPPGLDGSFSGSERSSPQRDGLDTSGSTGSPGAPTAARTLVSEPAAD
Description: as §1

S1P2 [4] = target: T1, S1P2; assay: TGFα-shedding assay, S1P2; type: cell-based
Description: as §1

S1P3 = target: T5, S1P3 (Homo sapiens, UniProt Q99500); assay: TGFα-shedding assay, S1P3; type: cell-based; settings: for EC50: HEK293 cells, ligand 1 hour
T5 construct: expressed in transfected cells; host or cells: HEK293
T5 sequence (Q99500 whole entry, species assumed): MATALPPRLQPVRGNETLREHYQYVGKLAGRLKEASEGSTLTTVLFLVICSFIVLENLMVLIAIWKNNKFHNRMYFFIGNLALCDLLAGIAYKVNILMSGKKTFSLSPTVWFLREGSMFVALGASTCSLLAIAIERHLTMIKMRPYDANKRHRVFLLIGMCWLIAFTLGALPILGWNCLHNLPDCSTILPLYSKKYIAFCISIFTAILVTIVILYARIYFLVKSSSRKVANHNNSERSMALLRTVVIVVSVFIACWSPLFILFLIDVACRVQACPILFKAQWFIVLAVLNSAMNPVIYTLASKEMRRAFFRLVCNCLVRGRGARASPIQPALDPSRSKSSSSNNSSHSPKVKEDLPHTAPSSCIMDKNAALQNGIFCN
Description: as §1

[5] = system: MDA-MB-231 breast cancer cells; assay: Cell rounding assay in MDA-MB-231 cells (endogenous S1P2); type: cell-based; settings: for cell rounding response: serum-starved MDA-MB-231 cells, S1P 1 μM
Description: Cell rounding was performed essentially as described. […] After 15 min, the cells were fixed and stained with fluorescein phalloidin and DAPI for cell morphology. The number of cells with retracted neurites and the number of total cells were counted in three separate fields for each sample, and the percentage of cells with retracted neurites was calculated.

S1P1 = target: T6, S1P1 (Homo sapiens, UniProt P21453); assay: TGFα-shedding assay, S1P1; type: cell-based; settings: for EC50: HEK293 cells, ligand 1 hour
T6 construct: expressed in transfected cells; host or cells: HEK293
T6 sequence (P21453 whole entry, species assumed): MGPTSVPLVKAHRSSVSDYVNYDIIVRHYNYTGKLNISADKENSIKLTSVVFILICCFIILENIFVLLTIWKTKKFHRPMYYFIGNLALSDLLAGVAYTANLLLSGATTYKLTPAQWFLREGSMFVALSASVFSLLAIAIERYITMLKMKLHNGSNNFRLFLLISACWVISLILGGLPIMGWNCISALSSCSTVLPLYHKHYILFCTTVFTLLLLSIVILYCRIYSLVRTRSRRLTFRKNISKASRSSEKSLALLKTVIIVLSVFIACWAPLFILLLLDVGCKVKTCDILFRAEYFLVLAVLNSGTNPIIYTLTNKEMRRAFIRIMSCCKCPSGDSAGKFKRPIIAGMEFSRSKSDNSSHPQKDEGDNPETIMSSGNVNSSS
Description: as §1

S1P3-EGFP = target: T7, S1P3-EGFP (Homo sapiens, UniProt Q99500); assay: Receptor internalization assay, S1P3-EGFP; type: cell-based; settings: 1 μM ligand
T7 construct: expressed in transfected cells
T7 sequence (Q99500 whole entry): as the sequence (Q99500 whole entry, species assumed) above

[6] = system: NOX3 complex (Nox3, NoxO1, NoxA1); assay: NOX3 activity assay (luminol) in transfected HEK293 cells; type: cell-based; settings: HEK293, S1P 1 μM, 15 minutes
Description: NOX3 activity was determined as previously described. […] Indicated values were taken 15 minutes following stimulation.

S1P1-EGFP = target: T8, S1P1-EGFP (Homo sapiens, UniProt P21453); assay: Receptor internalization assay, S1P1-EGFP; type: cell-based; settings: 1 μM ligand
T8 construct: expressed in transfected cells
T8 sequence (P21453 whole entry): as the sequence (P21453 whole entry, species assumed) above

T1 sequence (O95136 whole entry, species assumed): as the sequence (O95136 whole entry) above

## Cc1cc(C(=O)Cn2cc(C(F)(F)F)ccc2=O)c(C)n1Cc1ccccc1 [CYM-5478]
S1P2 [1]; Scripps Research Institute Molecular Screening Center HTS, ref http://pubchem.ncbi.nlm.nih.gov/assay/assay.cgi?aid=872, read-out: EC50 in the original screen
  EC50: 723 nM
S1P2 [1]; read-out: EC50 in subsequent validation studies
  EC50: 780 nM
C6 cells; co-administration of 10 μM CYM-5478 with cisplatin 67 μM, 24 hours
  effect on cisplatin-induced increase in propidium iodide-positive cells: attenuated
C6 cells; without cisplatin
  change in propidium iodide-positive cells, treatment alone: no significant change
ROS in C6 cells
  effect on cisplatin-induced ROS: significantly attenuated
C6 rat glioma cells; C6 cells, 10 μM CYM-5478
  increase in EC50 of cisplatin conferred by co-administration: 3 fold
C6 rat glioma cells; C6 cells, 10% fetal bovine serum (data not shown)
  increase in viability in the presence of 10% fetal bovine serum: absent
C6 rat glioma cells; C6 cells, vs vehicle-treated
  effect on EC50 of cisplatin in the presence of 1 mM N-acetylcysteine: no significant difference
C6 rat glioma cells; presence vs absence of CYM-5478
  protection of C6 cells from exogenously administered ROS (hydrogen peroxide): equally sensitive
C6 rat glioma cells; serum-starved C6 cells, MTT
  concentrations giving statistically significant, dose dependent increase in viability: above 100 nM
[2]
  efficacy against the other S1P receptor subtypes: less than 25%
  lower potency against the other S1P receptor subtypes vs S1P2: 10 fold
S1P4
  EC50: > 10000 nM
[3]; co-administration of 10 μM CYM-5478
  effect on cisplatin-induced caspase 3/7 activity: markedly attenuated
S1P2-EGFP
  internalization of S1P2-EGFP: induced the internalization of S1P2-EGFP
S1P5; HEK293 cells, ligand 1 hour
  EC50: > 10000 nM
S1P2 [4]; HEK293 cells, ligand 1 hour
  EC50: 119 nM
S1P2 [4]; relative to S1P
  S1P2 Emax: 99.5%
S1P3
  EC50: 1950 nM
S1P3; relative to S1P
  S1P3 Emax: 20.8%
[5]
  cell rounding response: identical rounding response
S1P1
  EC50: 1690 nM
S1P1; relative to S1P
  S1P1 Emax: 24.2%

## N.N.[Cl][Pt][Cl] [Cisplatin, cis-Diammineplatinum(II) dichloride]
C6 cells; cisplatin 67 μM, 24 hours
  increase in propidium iodide-positive cells: > 3 fold
ROS in C6 cells; cisplatin 20 μM, 24 hours
  ROS accumulation (CellROX fluorescence): increase in ROS
C6 rat glioma cells; C6 cells, 72 hours, MTT, read-out: EC50 of cisplatin-mediated reduction in viability, + vehicle
  EC50: 1340 nM
[3]; overnight
  caspase 3/7 activity: significant increase in caspase 3/7 activity

## c1ccc2c(c1)[I+]c1ccccc1-2 [DPI, diphenyleneiodonium]
ROS in C6 cells
  effect on cisplatin-induced ROS: phenocopied

## OO [H2O2, hydrogen peroxide]
C6 rat glioma cells; C6 cells, read-out: EC50 of hydrogen peroxide, + vehicle
  EC50: 1860 nM

## CCN(CC)CCCC(C)Nc1nc(C)cc(Nc2ccc3nc(C)cc(N)c3c2)n1 (centres unmarked) [NSC23766]
ROS in C6 cells
  effect on cisplatin-induced ROS: phenocopied

## CCCCCCCCCCCCC/C=C/[C@@H](O)[C@@H](N)COP(=O)(O)O [S1P, sphingosine 1-phosphate]
S1P4
  Emax: 100%
  EC50: 175 nM
S1P2-EGFP
  internalization of S1P2-EGFP: largely internalized to cytoplasmic vesicles
S1P5
  Emax: 100%
S1P2 [4]
  Emax: 100%
S1P3-EGFP
  internalization of S1P3-EGFP: largely internalized to cytoplasmic vesicles
S1P3
  Emax: 100%
  EC50: 55.4 nM
[6]
  S1P-dependent reduction of NOX3 ROS, co-transfected S1P1: not observed
  S1P-dependent reduction of NOX3 ROS, co-transfected S1P3: not observed
  effect on NOX3 ROS generation, co-transfected S1P2: further attenuated
S1P1-EGFP
  internalization of S1P1-EGFP: largely internalized to cytoplasmic vesicles
[5]
  cell rounding response: pronounced cytoskeletal rearrangement characterized by process retraction and cell rounding
S1P1
  EC50: 115 nM

## C[C@@H](N)[C@H]1CC[C@H](C(=O)Nc2ccncc2)CC1 [Y-27632]
ROS in C6 cells
  effect on CYM-5478-mediated attenuation of cisplatin-induced ROS: complete attenuation of CYM-5478 activity
  effect on cisplatin-induced ROS: no effect on cisplatin-induced ROS

## JTE-013
ROS in C6 cells
  effect on CYM-5478-mediated attenuation of cisplatin-induced ROS: complete attenuation of CYM-5478 activity
  effect on cisplatin-induced ROS: no effect on cisplatin-induced ROS
[5]; pre-treatment 15 minutes before CYM-5478
  effect of pre-treatment on CYM-5478-induced cell rounding: similarly abrogated
[5]; pre-treatment 15 minutes before S1P (1 μM)
  effect of pre-treatment on S1P-induced cell rounding: completely abrogated
